Data published in ChEMBL document CHEMBL2390923, “Synthesis of 7-oxabicyclo[2.2.1]hept-5-en-2-yl derivatives and their screening for antimicrobial and antioxidant properties” (2013).
≈ marks a conversion by molar mass, not a printed value.

How the values were obtained:
Type in all cases: functional
[1] = tested on: Staphylococcus aureus; assay: Antibacterial activity against Staphylococcus aureus at 125 mg/ml after 24 hrs by well diffusion assay; conditions: read-out: DIZ
[2] = tested on: Klebsiella pneumoniae; assay: Antibacterial activity against Klebsiella pneumoniae at 150 mg/ml after 24 hrs by well diffusion assay; conditions: read-out: DIZ
[3] = tested on: Staphylococcus aureus; assay: Antibacterial activity against Staphylococcus aureus at 150 mg/ml after 24 hrs by well diffusion assay; conditions: read-out: DIZ
[4] = tested on: Staphylococcus aureus; assay: Antibacterial activity against Staphylococcus aureus at 100 mg/ml after 24 hrs by well diffusion assay; conditions: read-out: DIZ
[5] = tested on: Bacillus subtilis; assay: Antibacterial activity against Bacillus subtilis at 125 mg/ml after 24 hrs by well diffusion assay; conditions: read-out: DIZ
[6] = tested on: Bacillus subtilis; assay: Antibacterial activity against Bacillus subtilis at 100 mg/ml after 24 hrs by well diffusion assay; conditions: read-out: DIZ
[7] = tested on: Escherichia coli; assay: Antibacterial activity against Escherichia coli at 125 mg/ml after 24 hrs by well diffusion assay; conditions: read-out: DIZ
[8] = tested on: Radical scavenging activity; assay: Antioxidant activity assessed as DPPH radical scavenging activity after 30 mins; parameters: concentration or dose not given beside the values
[9] = tested on: Bacillus subtilis; assay: Antibacterial activity against Bacillus subtilis after 18 to 24 hrs by microdilution broth assay
[10] = tested on: Bacillus subtilis; assay: Antibacterial activity against Bacillus subtilis at 150 mg/ml after 24 hrs by well diffusion assay; conditions: read-out: DIZ
[11] = tested on: Vibrio cholerae; assay: Antibacterial activity against Vibrio cholerae after 18 to 24 hrs by microdilution broth assay
[12] = tested on: Klebsiella pneumoniae; assay: Antibacterial activity against Klebsiella pneumoniae at 100 mg/ml after 24 hrs by well diffusion assay; conditions: read-out: DIZ
[13] = tested on: Vibrio cholerae; assay: Antibacterial activity against Vibrio cholerae at 125 mg/ml after 24 hrs by well diffusion assay; conditions: read-out: DIZ
[14] = tested on: Escherichia coli; assay: Antibacterial activity against Escherichia coli at 100 mg/ml after 24 hrs by well diffusion assay; conditions: read-out: DIZ
[15] = tested on: Staphylococcus aureus; assay: Antibacterial activity against Staphylococcus aureus after 18 to 24 hrs by microdilution broth assay
[16] = tested on: Escherichia coli; assay: Antibacterial activity against Escherichia coli at 150 mg/ml after 24 hrs by well diffusion assay; conditions: read-out: DIZ
[17] = tested on: Escherichia coli; assay: Antibacterial activity against Escherichia coli after 18 to 24 hrs by microdilution broth assay
[18] = tested on: Vibrio cholerae; assay: Antibacterial activity against Vibrio cholerae at 150 mg/ml after 24 hrs by well diffusion assay; conditions: read-out: DIZ
[19] = tested on: Klebsiella pneumoniae; assay: Antibacterial activity against Klebsiella pneumoniae after 18 to 24 hrs by microdilution broth assay
[20] = tested on: Klebsiella pneumoniae; assay: Antibacterial activity against Klebsiella pneumoniae at 125 mg/ml after 24 hrs by well diffusion assay; conditions: read-out: DIZ
[21] = tested on: Vibrio cholerae; assay: Antibacterial activity against Vibrio cholerae at 100 mg/ml after 24 hrs by well diffusion assay; conditions: read-out: DIZ

Row | SMILES | zone of inhibition at 125000 µg/mL [1] | zone of inhibition at 150000 µg/mL [2] | zone of inhibition at 150000 µg/mL [3] | zone of inhibition at 100000 µg/mL [4] | zone of inhibition at 125000 µg/mL [5] | zone of inhibition at 100000 µg/mL [6] | zone of inhibition at 125000 µg/mL [7] | inhibition [8] | MIC [9] | zone of inhibition at 150000 µg/mL [10] | MIC [11] | zone of inhibition at 100000 µg/mL [12] | zone of inhibition at 125000 µg/mL [13] | zone of inhibition at 100000 µg/mL [14] | MIC [15] | zone of inhibition at 150000 µg/mL [16] | MIC [17] | zone of inhibition at 150000 µg/mL [18] | MIC [19] | zone of inhibition at 125000 µg/mL [20] | other results
1 | CCC12C=CC(O1)C(C(=O)c1ccc(Br)cc1)C2c1ccccc1 (stereo not drawn) | 13 mm | 16 mm | 17 mm | 11 mm | 14 mm | 12 mm | 16 mm | 32.6% | 78 µg/mL (≈ 204 µM) | 17 mm | 312 µg/mL (≈ 814 µM) | 11 mm | 10 mm | 12 mm | 1250 µg/mL (≈ 3260 µM) | 17 mm | 78 µg/mL (≈ 204 µM) | 11 mm | 78 µg/mL (≈ 204 µM) | 14 mm | –
2 | CCC12C=CC(O1)C(C(=O)c1ccccc1)C2c1ccc([N+](=O)[O-])cc1 (stereo not drawn) | – | – | 13 mm | – | – | – | 14 mm | 21.6% | 1250 µg/mL (≈ 3580 µM) | – | 1250 µg/mL (≈ 3580 µM) | – | – | 12 mm | 1250 µg/mL (≈ 3580 µM) | 14 mm | 1250 µg/mL (≈ 3580 µM) | – | 625 µg/mL (≈ 1790 µM) | – | –
3 | CCC12C=CC(O1)C(C(=O)c1ccccc1)C2c1cccc(F)c1 (stereo not drawn) | 14 mm | 12 mm | 16 mm | 11 mm | – | – | 11 mm | 22.3% | 1250 µg/mL (≈ 3880 µM) | 12 mm | 625 µg/mL (≈ 1940 µM) | – | 14 mm | – | 625 µg/mL (≈ 1940 µM) | 12 mm | 1250 µg/mL (≈ 3880 µM) | 15 mm | 312 µg/mL (≈ 968 µM) | 11 mm | zone of inhibition at 100000 µg/mL [21]: 12 mm
4 | CCC12C=CC(O1)C(C(=O)c1ccccc1)C2c1ccc(F)cc1 (stereo not drawn) | 13 mm | 12 mm | 15 mm | – | – | – | 11 mm | 42.4% | 625 µg/mL (≈ 1940 µM) | – | 625 µg/mL (≈ 1940 µM) | – | – | 10 mm | 1250 µg/mL (≈ 3880 µM) | 13 mm | 625 µg/mL (≈ 1940 µM) | – | 625 µg/mL (≈ 1940 µM) | – | –
5 | CCC12C=CC(O1)C(C(=O)c1ccccc1)C2c1ccc(OC)cc1 (stereo not drawn) | 11 mm | – | 13 mm | – | – | – | – | 15.1% | 625 µg/mL (≈ 1870 µM) | – | 625 µg/mL (≈ 1870 µM) | – | 14 mm | – | 1250 µg/mL (≈ 3740 µM) | – | 625 µg/mL (≈ 1870 µM) | 17 mm | 625 µg/mL (≈ 1870 µM) | – | zone of inhibition at 100000 µg/mL [21]: 12 mm
6 | CCC12C=CC(O1)C(C(=O)c1ccccc1)C2c1ccccc1Br (stereo not drawn) | 14 mm | 11 mm | 16 mm | 13 mm | – | – | 14 mm | 17.7% | 1250 µg/mL (≈ 3260 µM) | – | 625 µg/mL (≈ 1630 µM) | – | – | 11 mm | 1250 µg/mL (≈ 3260 µM) | 15 mm | 1250 µg/mL (≈ 3260 µM) | – | 625 µg/mL (≈ 1630 µM) | – | –
7 | Cc1cc(C(C)(C)C)c(O)c(C(C)(C)C)c1 | – | – | – | – | – | – | – | 58.4% | – | – | – | – | – | – | – | – | – | – | – | – | –
8 | CCC12C=CC(O1)C(C(=O)c1ccccc1)C2c1cccc(OC)c1 (stereo not drawn) | 15 mm | 13 mm | 17 mm | – | – | – | 15 mm | 33.4% | 625 µg/mL (≈ 1870 µM) | – | 625 µg/mL (≈ 1870 µM) | – | – | 13 mm | 625 µg/mL (≈ 1870 µM) | 16 mm | 625 µg/mL (≈ 1870 µM) | – | 312 µg/mL (≈ 933 µM) | 12 mm | –
9 | CCC12C=CC(O1)C(C(=O)c1ccccc1)C2c1ccc(Br)cc1 (stereo not drawn) | 13 mm | 12 mm | 14 mm | 11 mm | – | – | 14 mm | 30.5% | 312 µg/mL (≈ 814 µM) | 12 mm | 625 µg/mL (≈ 1630 µM) | – | 11 mm | – | 156 µg/mL (≈ 407 µM) | 18 mm | 312 µg/mL (≈ 814 µM) | 12 mm | 156 µg/mL (≈ 407 µM) | 11 mm | –
10 | CCC12C=CC(O1)C(C(=O)c1cccc(Br)c1)C2c1ccccc1 (stereo not drawn) | – | – | – | – | – | – | 12 mm | 36% | 625 µg/mL (≈ 1630 µM) | – | 625 µg/mL (≈ 1630 µM) | – | – | – | 625 µg/mL (≈ 1630 µM) | 14 mm | 625 µg/mL (≈ 1630 µM) | 12 mm | 312 µg/mL (≈ 814 µM) | – | –
11 | CCC12C=CC(O1)C(C(=O)c1ccccc1)C2c1ccc(C#N)cc1 (stereo not drawn) | 11 mm | 15 mm | 13 mm | – | 13 mm | 11 mm | 15 mm | 58.9% | 156 µg/mL (≈ 474 µM) | 15 mm | 1250 µg/mL (≈ 3790 µM) | 10 mm | – | 11 mm | 156 µg/mL (≈ 474 µM) | 16 mm | 156 µg/mL (≈ 474 µM) | – | 156 µg/mL (≈ 474 µM) | 13 mm | –
12 | CCC12C=CC(O1)C(C(=O)c1ccccc1)C2c1ccccc1F (stereo not drawn) | 15 mm | 14 mm | 16 mm | 13 mm | – | – | – | 18.1% | 1250 µg/mL (≈ 3880 µM) | – | 625 µg/mL (≈ 1940 µM) | 10 mm | – | – | 1250 µg/mL (≈ 3880 µM) | 12 mm | 1250 µg/mL (≈ 3880 µM) | – | 625 µg/mL (≈ 1940 µM) | 13 mm | –
13 | CCC12C=CC(O1)C(C(=O)c1ccccc1)C2c1cccc(Br)c1 (stereo not drawn) | 12 mm | 14 mm | 15 mm | 11 mm | 14 mm | 11 mm | 12 mm | 23.2% | 312 µg/mL (≈ 814 µM) | 17 mm | 625 µg/mL (≈ 1630 µM) | – | – | – | 31 µg/mL (≈ 80.9 µM) | 15 mm | 312 µg/mL (≈ 814 µM) | 11 mm | 156 µg/mL (≈ 407 µM) | 12 mm | –
14 | CCC12C=CC(O1)C(C(=O)c1ccccc1)C2c1ccc(Cl)cc1 (stereo not drawn) | – | 15 mm | 13 mm | – | – | – | – | 35.5% | 322 µg/mL (≈ 950 µM) | – | 625 µg/mL (≈ 1840 µM) | – | 13 mm | – | 625 µg/mL (≈ 1840 µM) | – | 312 µg/mL (≈ 921 µM) | 14 mm | 156 µg/mL (≈ 460 µM) | 11 mm | zone of inhibition at 100000 µg/mL [21]: 11 mm
15 | CCC12C=CC(O1)C(C(=O)c1ccccc1)C2c1ccccc1 (stereo not drawn) | – | 19 mm | – | – | 16 mm | 12 mm | 14 mm | 58.9% | 312 µg/mL (≈ 1030 µM) | 18 mm | 1250 µg/mL (≈ 4110 µM) | 13 mm | – | – | 625 µg/mL (≈ 2050 µM) | 15 mm | 312 µg/mL (≈ 1030 µM) | – | 4 µg/mL (≈ 13.1 µM) | 16 mm | –
16 | CCC12C=CC(O1)C(C(=O)c1ccccc1)C2c1ccccc1Cl (stereo not drawn) | 15 mm | 12 mm | 16 mm | 12 mm | 12 mm | 10 mm | 14 mm | 22.2% | 1250 µg/mL (≈ 3690 µM) | 13 mm | 625 µg/mL (≈ 1840 µM) | 9 mm | 12 mm | 13 mm | 1250 µg/mL (≈ 3690 µM) | 16 mm | 1250 µg/mL (≈ 3690 µM) | 14 mm | 625 µg/mL (≈ 1840 µM) | 11 mm | zone of inhibition at 100000 µg/mL [21]: 11 mm
17 | O=C(O)c1cn(C2CC2)c2cc(N3CCNCC3)c(F)cc2c1=O [CIPROFLOXACIN] | 16 mm | 23 mm | 16 mm | 16 mm | 18 mm | 18 mm | – | – | 125 µg/mL (≈ 377 µM) | 18 mm | 15 µg/mL (≈ 45.3 µM) | 23 mm | 16 mm | – | 15 µg/mL (≈ 45.3 µM) | – | 62 µg/mL (≈ 187 µM) | 16 mm | 7 µg/mL (≈ 21.1 µM) | 23 mm | zone of inhibition at 100000 µg/mL [21]: 16 mm
